The values that follow come from US7335674B2, “Benzothiazole-4,7-diones and benzoxazole-4,7-diones with substituents in position 5 or 6 and method for production thereof” (Societe de Conseils de Recherches et d'Applications …, priority 2003, dated 2008).

Series [1] relates to Mia-Paca2 (human pancreas cancer cells). Description: Antiproliferative activity, WST1 colorimetric test, Mia-PaCa2. The class given is cell-based. The following applies: MIA PaCa-2, Mia-Paca2, treated 96 hours, up to 10 μM, read-out: IC50 on the cell proliferation of the Mia-Paca2 lines. How it is done:
(§1) iii) Characterization of the Antiproliferative Activity:
(§2) By way of example, the effect of a treatment on two human cell lines Mia-Paca2 and DU145 by the compounds of the examples described previously will be studied. The cell lines DU145 (human prostate cancer cells) and Mia-PaCa2 (human pancreas cancer cells) were acquired from the American Tissue Culture Collection (Rockville, Md., USA). The cells placed in 80 μl of Dulbecco's Modified Eagle's medium (Gibco-Brl, Cergy-Pontoise, France) completed with 10% foetal calf serum inactivated by heating (Gibco-Brl, Cergy-Pontoise, France), 50,000 units/l of penicillin and 50 mg/l of streptomycin (Gibco-Brl, 10378-057, Cergy-Pontoise, France), and 2 mM of glutamine (Gibco-Brl, Cergy-Pontoise, France) were seeded on a 96-well plate on day 0. The cells were treated on day 1 for 96 hours with increasing concentrations of each of the compounds to be tested up to 10 μM. At the end of this period, quantification of cell proliferation is evaluated by a colorimetric test based on the cleavage of the tetrazolium salt WST1 by the mitochondrial dehydrogenases in viable cells leading to the formation of formazan (Boehringer Mannheim, Meylan, France). These tests are carried out in duplicate with 8 determinations per concentration tested. For each compound to be tested, the values included in the linear part of the sigmoid were retained for a linear regression analysis and used to estimate the inhibitory concentration IC50. The products are solubilized in dimethylsulphoxide (DMSO) at 10^−2 M and finally used in culture with 0.1% DMSO.
For orientation: Formazan colour is commonly taken as a measure of viable cells.

For series [2], the system named is DU145 (human prostate cancer cells). The experiment in a line: Antiproliferative activity, WST1 colorimetric test, DU145. The class given is cell-based. The following applies: DU-145, treated 96 hours, up to 10 μM, read-out: IC50 on the cell proliferation of the DU-145 lines. How it is done: as §1, §2

Consider `CN(C)CCNC1=CC(=O)c2oc(-c3ccccc3Br)nc2C1=O` [Example 16, 2-(2-bromophenyl)-5-{[2-(dimethylamino)ethyl]amino}-1,3-benzoxazole4,7-dione], for which the melting point lay in the range of 153 to 154 °C. Moreover, the IC50 in series [1] is no more than 10 µM. In addition, the IC50 in series [2] is no more than 10 µM.
`CN(C)CCNC1=CC(=O)c2nc(-c3ccc4ccccc4c3)sc2C1=O` [Example 13, 6-{[2-(dimethylamino)ethyl]amino}-2-(2-naphthyl)-1,3-benzothiazole-4,7-dione] yielded a melting point of 167 to 168 °C. Moreover, in series [1], the IC50 was no more than 10 µM. Also, the IC50 in series [2] is no more than 10 µM.
In turn, `CN(C)CCNC1=CC(=O)c2oc(-c3cc(F)ccc3F)nc2C1=O` [Example 15, 2-(2,5-difluorophenyl)-5-{[2-(dimethylamino)ethyl]amino}-1,3-benzoxazole-4,7-dione] registered a melting point of 181 to 182 °C. For the same molecule, in series [1], the IC50 was no more than 10 µM. Further, the IC50 in series [2] was no more than 10 µM.
`O=C1C(NCCN2CCCC2)=CC(=O)c2sc(-c3c(F)cccc3Cl)nc21` [Example 7, 2-(2-chloro-6-fluorophenyl)-5-[(2-pyrrolidin-1-ylethyl)amino]-1,3-benzothiazole-4,7-dione]: the IC50 in series [1] and in series [2] was no more than 10 µM throughout.
Consider `O=C1C=C(NCCN2CCCC2)C(=O)c2oc(-c3cc(Br)cc(Br)c3)nc21` [Example 49, 2-(3,5-dibromophenyl)-6-[(2-pyrrolidin-1-ylethyl)amino]-1,3-benzoxazole-4,7-dione], for which the melting point was in the range of 202 to 203 °C. Also, the IC50 in series [1] was no more than 10 µM. In addition, the IC50 in series [2] is no more than 10 µM.
`CCc1ccc(-c2nc3c(o2)C(=O)C(NCCN(C)C)=CC3=O)cc1` [Example 38, 6-{[2-(dimethylamino)ethyl]amino}-2-(4-ethylphenyl)-1,3-benzoxazole-4,7-dione]: the melting point is 151 to 152 °C. The IC50 in series [1] is no more than 10 µM. The IC50 in series [2] is no more than 10 µM.
The molecule `COc1ccc(-c2nc3c(o2)C(=O)C(NCCN(C)C)=CC3=O)cc1OC` [Example 41, 2-(3,4-dimethoxyphenyl)-6-{[2-(dimethylamino)ethyl]amino}-1,3-benzoxazole-4,7-dione] returned a melting point of 181 to 182 °C. In series [1], the IC50 was no more than 10 µM. Besides, in series [2], the IC50 is no more than 10 µM.
As to `CN(C)CCNC1=CC(=O)c2nc(-c3ccccc3Br)oc2C1=O` [Example 28, 2-(2-bromophenyl)-6-{[2-(dimethylamino)ethyl]amino}-1,3-benzoxazole4,7-dione], the melting point is 147 to 148 °C. Also, in series [1], the IC50 is no more than 10 µM. The IC50 in series [2] was no more than 10 µM.
As to `CN(C)CCNC1=CC(=O)c2nc(-c3ccc(Br)cc3Cl)oc2C1=O` [Example 39, 2-(4-bromo-2-chlorophenyl)-6-{[2-(dimethylamino)ethyl]amino}-1,3-benzoxazole4,7-dione], the melting point was 163 to 164 °C. Moreover, the IC50 in series [1] is no more than 10 µM. Besides, in series [2], the IC50 was no more than 10 µM.
Molecule `CN(C)CCNC1=CC(=O)c2nc(-c3cc(F)cc(F)c3)oc2C1=O` [Example 34, 2-(3,5-difluorophenyl)-6-{[2-(dimethylamino)ethyl]amino}-1,3-benzoxazole-4,7-dione] returned a melting point of 176 to 177 °C. Also, the IC50 in series [1] was no more than 10 µM. Further, in series [2], the IC50 is no more than 10 µM.
The molecule `CN(C)CCNC1=CC(=O)c2oc(-c3cc(F)cc(F)c3)nc2C1=O` [Example 19, 2-(3,5-difluorophenyl)-5-{[2-(dimethylamino)ethyl]amino}-1,3-benzoxazole-4,7-dione] yielded a melting point of 187 to 188 °C. Also, the IC50 in series [1] was no more than 10 µM. The IC50 in series [2] is no more than 10 µM.
With `CN(C)CCNC1=CC(=O)c2sc(-c3ccc(F)cc3)nc2C1=O` [Example 4, 5-{[2-(dimethylamino)ethyl]amino}-2-(4-fluorophenyl)-1,3-benzothiazole4,7-dione], the IC50 in series [1] and in series [2] was no more than 10 µM throughout.
For the molecule `COc1cc(-c2nc3c(o2)C(=O)C(NCCN(C)C)=CC3=O)cc(OC)c1OC` [Example 40, 6-{[2-(dimethylamino)ethyl]amino}-2-(3,4,5-trimethoxyphenyl)-1,3-benzoxazole-4,7-dione], the IC50 in series [1] and in series [2] was no more than 10 µM throughout.
Molecule `O=C1C=C(NCCN2CCCC2)C(=O)c2oc(-c3cccc(Cl)c3)nc21` [Example 47, 2-(3-chlorophenyl)-6-[(2-pyrrolidin-1-ylethyl)amino]-1,3-benzoxazole4,7-dione] displayed a melting point of 161 to 162 °C. The IC50 in series [1] was no more than 10 µM. Moreover, in series [2], the IC50 was no more than 10 µM.
Molecule `CN(C)CCNC1=CC(=O)c2nc(-c3cc(Br)cc(Br)c3)oc2C1=O` [Example 32, 2-(3,5-dibromophenyl)-6-{[2-(dimethylamino)ethyl]amino}-1,3-benzoxazole-4,7-dione] had a melting point of 206 to 207 °C. Also, the IC50 in series [1] is no more than 10 µM. In addition, in series [2], the IC50 is no more than 10 µM.
Turning to `CN(C)CCNC1=CC(=O)c2sc(-c3cc(Cl)sc3Cl)nc2C1=O` [Example 2, 2-(2,5-dichlorothien-3-yl)-5-{1-[2-(dimethylamino)ethyl]amino}-1,3-benzothiazole-4,7-dione], the IC50 in series [1] and in series [2] was no more than 10 µM each time.
In turn, `CN(C)CCNC1=CC(=O)c2nc(-c3ccc(-c4ccccc4)cc3)sc2C1=O` [Example 10, 2-(1,1′-biphenyl-4-yl)-6-{[2-(dimethylamino)ethyl]amino}-1,3-benzothiazole-4,7-dione] gave a melting point of 194 to 195 °C. Further, in series [1], the IC50 is no more than 10 µM. In series [2], the IC50 was no more than 10 µM.
For `CN(C)CCNC1=CC(=O)c2sc(-c3c(F)cccc3Cl)nc2C1=O` [Example 6, 2-(2-chloro-6-fluorophenyl)-5-{[2-(dimethylamino)ethyl]amino}-1,3-benzothiazole4,7-dione], the IC50 in series [1] and in series [2] was no more than 10 µM each time.
Take `O=C1C(NCCN2CCCC2)=CC(=O)c2sc(-c3cc(Cl)sc3Cl)nc21` [Example 3, 2-(2,5-dichlorothien-3-yl)-5-[(2-pyrrolidin-1-ylethyl)amino]-1,3-benzothiazole-4,7-dione]: the IC50 in series [1] and in series [2] was no more than 10 µM in each case.
In the case of `CN(C)CCNC1=CC(=O)c2nc(-c3cc(F)ccc3F)oc2C1=O` [Example 27, 2-(2,5-difluorophenyl)-6-{[2-(dimethylamino)ethyl]amino}-1,3-benzoxazole-4,7-dione], the IC50 in series [1] and in series [2] was no more than 10 µM each time.
As for `COc1cc(-c2nc3c(o2)C(=O)C(NCCN2CCCC2)=CC3=O)cc(OC)c1OC` [Example 56, 6-[(2-pyrrolidin-1-ylethyl)amino]-2-(3,4,5-trimethoxyphenyl)-1,3-benzoxazole-4,7-dione], the IC50 in series [1] and in series [2] was no more than 10 µM each time.
In the case of `O=C1C(NCCN2CCCC2)=CC(=O)c2sc(-c3ccc(F)cc3)nc21` [Example 5, 2-(4-fluorophenyl)-5-[(2-pyrrolidin-1-ylethyl)amino]-1,3-benzothiazole-4,7-dione], the IC50 in series [1] and in series [2] was no more than 10 µM each time.
Take `CN(C)CCNC1=CC(=O)c2nc(-c3cc(F)ccc3F)sc2C1=O` [Example 14, 2-(2,5-difluorophenyl)-6-{[2-(dimethylamino)ethyl]amino}-1,3-benzothiazole-4,7-dione]: the IC50 in series [1] and in series [2] was no more than 10 µM in each case.
Turning to `CN(C)CCNC1=CC(=O)c2oc(-c3cc(F)c(F)c(F)c3)nc2C1=O` [Example 21, 5-{[2-(dimethylamino)ethyl]amino}-2-(3,4,5-trifluorophenyl)-1,3-benzoxazole4,7-dione], the IC50 in series [1] and in series [2] was no more than 10 µM each time.
On to `CCCCCCc1nc2c(s1)C(=O)C(NCCN(C)C)=CC2=O` [Example 60, 6-{[2-(dimethylamino)ethyl]amino}-2-hexyl-1,3-benzothiazole-4,7-dione], for which the IC50 in series [1] and in series [2] was no more than 10 µM in each case.
For the molecule `CN(C)CCNC1=CC(=O)c2sc(-c3c(F)cccc3F)nc2C1=O` [Example 1, 2-(2,6-difluorophenyl)-5-{[2-(dimethylamino)ethyl]amino}-1,3-benzothiazole-4,7-dione], the IC50 in series [1] and in series [2] was no more than 10 µM each time.
For `CN(C)CCNC1=CC(=O)c2nc(-c3c(F)cccc3Cl)sc2C1=O` [Example 12, 2-(2-chloro-6fluorophenyl)-6-{[2-(dimethylamino)ethyl]amino}-1,3-benzothiazole-4,7-dione], the IC50 in series [1] and in series [2] was no more than 10 µM each time.
On to `CCc1ccc(-c2nc3c(o2)C(=O)C(NCCN2CCCC2)=CC3=O)cc1` [Example 54, 2-(4-ethylphenyl)-6-[(2-pyrrolidin-1-ylethyl)amino]-1,3-benzoxazole-4,7-dione], for which the IC50 in series [1] and in series [2] was no more than 10 µM each time.

Usually melting point stands for the temperature, or range, at which the solid turns liquid.
